According to patent US20250270213A1, “PI3Ka INHIBITORS” (Synnovation Therapeutics, Inc., priority 2022, published 2025):

Test system: T47D (PIK3CA H1047R) cells
Assay: pS473 AKT assay with 2.5% FBS, T47D cells
Assay type: cell-based
Conditions: Homo sapiens, pSer473 AKT, DMEM with 2.5% FBS, 2 h treatment, read-out: T47D_IC50
In short: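 T47D (PIK3CA H1047R) cells were switched to DMEM with 2.5% FBS and exposed to compounds for 2 h. After paraformaldehyde fixation, pSer473 AKT was detected by in-cell ELISA (rabbit primary, HRP anti-rabbit secondary, chemiluminescence); IC50 values were fitted from the concentration series.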

| SMILES | IC50 |
| --- | --- |
| CNC(=O)c1ccc(-c2nc(Cl)ccc2NC(C)c2cc(C)cc3c(=O)n(C)c4c(cnn4CCN4CCOCC4)c23)cc1F (stereo not shown) [Example 266, 4-(6-chloro-3-((1-(4,7-dimethyl-3-(2-morpholinoethyl)-5-oxo-4,5-dihydro-3H-pyrazolo[3,4-c]isoquinolin-9-yl)ethyl)amino)pyridin-2-yl)-2-fluoro-N-methylbenzamide] | < 1000 nM |
| CNC(=O)c1ccc(-c2nc(Cl)ccc2NC(C)c2cc(C)cc3c(=O)n(C)c4c(cnn4CCN4CCN(C)CC4)c23)cc1F (stereo not shown) [Example 267, 4-(6-chloro-3-((1-(4,7-dimethyl-3-(2-(4-methylpiperazin-1-yl)ethyl)-5-oxo-4,5-dihydro-3H-pyrazolo[3,4-c]isoquinolin-9-yl)ethyl)amino)pyridin-2-yl)-2-fluoro-N-methylbenzamide] | < 1000 nM |
| Cc1cc(C(C)Nc2ccc(Cl)nc2-c2ncn(C)n2)c2c(c1)c(=O)n(CC(F)F)c1c2cnn1CCN1CCn2ncnc2C1 (stereo not shown) [Example 268, 9-(1-((6-chloro-2-(1-methyl-1H-1,2,4-triazol-3-yl)pyridin-3-yl)amino)ethyl)-4-(2,2-difluoroethyl)-3-(2-(5,6-dihydro-[1,2,4]triazolo[1,5-a]pyrazin-7(8H)-yl)ethyl)-7-methyl-3,4-dihydro-5H-pyrazolo[3,4-c]isoquinolin-5-one] | < 1000 nM |
| CCn1c(=O)c2cc(C)cc(C(C)Nc3ccc(Cl)nc3-c3ncn(C)n3)c2c2cnn(-c3ccccn3)c21 (stereo not shown) [Example 269, 9-[1-[[6-Chloro-2-(1-methyl-1,2,4-triazol-3-yl)-3-pyridyl]amino]ethyl]-4-ethyl-7-methyl-3-(2-pyridyl)pyrazolo[3,4-c]isoquinolin-5-one] | < 1000 nM |
| CCn1c(=O)c2cc(C)cc(C(C)Nc3ccc(Cl)nc3N3CCOCC3)c2c2cnn(-c3ccccn3)c21 (stereo not shown) [Example 270, 9-(1-((6-chloro-2-morpholinopyridin-3-yl)amino)ethyl)-4-ethyl-7-methyl-3-(pyridin-2-yl)-3,4-dihydro-5H-pyrazolo[3,4-c]isoquinolin-5-one] | < 1000 nM |
| CCn1c(=O)c2cc(C)cc(C(C)Nc3ccc(Cl)nc3-c3ccc(C(=O)NC)nc3)c2c2cnn(-c3ccccn3)c21 (stereo not shown) [Example 271, 6-chloro-3-((1-(4-ethyl-7-methyl-5-oxo-3-(pyridin-2-yl)-4,5-dihydro-3H-pyrazolo[3,4-c]isoquinolin-9-yl)ethyl)amino)-N-methyl-[2,3′-bipyridine]-6′-carboxamide] | < 1000 nM |
| Cc1cc(C(C)Nc2ccc(Cl)nc2-c2noc(=O)[nH]2)c2c(c1)c(=O)n(C)c1c2cnn1-c1ccccn1 (stereo not shown) [Example 272, 3-(6-chloro-3-((1-(4,7-dimethyl-5-oxo-3-(pyridin-2-yl)-4,5-dihydro-3H-pyrazolo[3,4-c]isoquinolin-9-yl)ethyl)amino)pyridin-2-yl)-1,2,4-oxadiazol-5(4H)-one] | < 1000 nM |
| Cc1cc(C(C)Nc2ccc(Cl)nc2-c2cnn(C)c2)c2c(c1)c(=O)n(C)c1c2cnn1-c1ccccn1 (stereo not shown) [Example 273, 9-(1-((6-chloro-2-(1-methyl-1H-pyrazol-4-yl)pyridin-3-yl)amino)ethyl)-4,7-dimethyl-3-(pyridin-2-yl)-3,4-dihydro-5H-pyrazolo[3,4-c]isoquinolin-5-one] | < 1000 nM |
| CCn1c(=O)c2cc(C)cc(C(C)Nc3ccc(Cl)nc3-c3ncn(C)n3)c2c2cnn(-c3cccnc3)c21 (stereo not shown) [Example 274, 9-[1-[[6-Chloro-2-(1-methyl-1,2,4-triazol-3-yl)-3-pyridyl]amino]ethyl]-4-ethyl-7-methyl-3-(3-pyridyl)pyrazolo[3,4-c]isoquinolin-5-one] | < 1000 nM |
| Cc1cc(C(C)Nc2ccc(Cl)nc2-c2cnn(C)c2)c2c(c1)c(=O)n(C)c1c2cnn1Cc1ccccn1 (stereo not shown) [Example 275, 9-[1-[[6-Chloro-2-(1-methylpyrazol-4-yl)-3-pyridyl]amino]ethyl]-4,7-dimethyl-3-(2-pyridylmethyl)pyrazolo[3,4-c]isoquinolin-5-one] | < 1000 nM |
| Cc1cc(C(C)Nc2ccc(Cl)nc2-c2noc(=O)[nH]2)c2c(c1)c(=O)n(C)c1c2cnn1Cc1ccccn1 (stereo not shown) [Example 276, 3-(6-Chloro-3-((1-(4,7-dimethyl-5-oxo-3-(pyridin-2-ylmethyl)-4,5-dihydro-3H-pyrazolo[3,4-c]isoquinolin-9-yl)ethyl)amino)pyridin-2-yl)-1,2,4-oxadiazol-5(4H)-one] | < 1000 nM |

Further lines, results first:

| IC50 | SMILES |
| --- | --- |
| < 1000 nM | Cc1cc(C(C)Nc2ccc(Cl)nc2-c2ncn(C)n2)c2c(c1)c(=O)n(C)c1c2cnn1C1CCCN(C)C1 (stereo not shown) [Example 277, 9-[1-[[6-Chloro-2-(1-methyl-1,2,4-triazol-3-yl)-3-pyridyl]amino]ethyl]-4,7-dimethyl-3-(1-methyl-3-piperidyl)pyrazolo[3,4-c]isoquinolin-5-one] |
| < 1000 nM | Cc1cc(C(C)Nc2ccc(Cl)nc2-c2ncn(C)n2)c2c(c1)c(=O)n(C)c1c2cnn1C1CCCN(CCO)C1 (stereo not shown) [Example 278, 9-[1-[[6-chloro-2-(1-methyl-1,2,4-triazol-3-yl)-3-pyridyl]amino]ethyl]-3-[1-(2-hydroxyethyl)-3-piperidyl]-4,7-dimethyl-pyrazolo[3,4-c]isoquinolin-5-one] |
| < 1000 nM | Cc1cc(C(C)Nc2ccc(Cl)nc2-c2cnn(C)c2)c2c(c1)c(=O)n(C)c1c2cnn1C1CCCN(C)C1 (stereo not shown) [Example 279, 9-[1-[[6-chloro-2-(1-methylpyrazol-4-yl)-3-pyridyl]amino]ethyl]-4,7-dimethyl-3-(1-methyl-3-piperidyl)pyrazolo[3,4-c]isoquinolin-5-one] |
| < 1000 nM | Cc1cc(C(C)Nc2ccc(Cl)nc2-c2cnn(C)c2)c2c(c1)c(=O)n(C)c1c2cnn1C1CCCN(CCO)C1 (stereo not shown) [Example 280, 9-[1-[[6-chloro-2-(1-methylpyrazol-4-yl)-3-pyridyl]amino]ethyl]-3-[1-(2-hydroxyethyl)-3-piperidyl]-4,7-dimethyl-pyrazolo[3,4-c]isoquinolin-5-one] |
| < 1000 nM | COC(=O)N1CCCC(n2ncc3c4c(C(C)Nc5ccc(Cl)nc5-c5cnn(C)c5)cc(C)cc4c(=O)n(C)c32)C1 (stereo not shown) [Example 281, methyl 3-[9-[1-[[6-chloro-2-(1-methylpyrazol-4-yl)-3-pyridyl]amino]ethyl]-4,7-dimethyl-5-oxo-pyrazolo[3,4-c]isoquinolin-3-yl]piperidine-1-carboxylate] |
| < 1000 nM | CNC(=O)c1ccc(-c2nc(Cl)ccc2OC(C)c2cc(C)cc3c(=O)n(C)c4c(cnn4C4CCN(C)CC4)c23)cn1 (stereo not shown) [Example 282, 5-[6-Chloro-3-[1-[4,7-dimethyl-3-(1-methyl-4-piperidyl)-5-oxo-pyrazolo[3,4-c]isoquinolin-9-yl]ethoxy]-2-pyridyl]-N-methyl-pyridine-2-carboxamide] |
| < 1000 nM | CNC(=O)c1ccc(-c2nc(Cl)ccc2OC(C)c2cc(C)cc3c(=O)n(C)c4c(cnn4C4CCN(C(C)=O)CC4)c23)cn1 (stereo not shown) [Example 283, 5-[3-[1-[3-(1-Acetyl-4-piperidyl)-4,7-dimethyl-5-oxo-pyrazolo[3,4-c]isoquinolin-9-yl]ethoxy]-6-chloro-2-pyridyl]-N-methyl-pyridine-2-carboxamide] |
| < 1000 nM | Cc1cc(C(C)Nc2ccc(Cl)nc2-c2ncn(C)n2)c2c(c1)c(=O)n1c3c2cnn3C(CO)CC1 (stereo not shown) [Example 284, 10-(1-((6-Chloro-2-(1-methyl-1H-1,2,4-triazol-3-yl)pyridin-3-yl)amino)ethyl)-3-(hydroxymethyl)-8-methyl-4,5-dihydro-3H,6H-2,2a,5a-triazaaceanthrylen-6-one] |
| < 1000 nM | Cc1cc(C(C)Nc2ccc(Cl)nc2-c2nnn(C)n2)c2c(c1)c(=O)n1c3c2cnn3C(CO)CC1 (stereo not shown) [Example 285, 10-(1-((6-chloro-2-(2-methyl-2H-tetrazol-5-yl)pyridin-3-yl)amino)ethyl)-3-(hydroxymethyl)-8-methyl-4,5-dihydro-3H,6H-2,2a,5a-triazaaceanthrylen-6-one] |
| < 1000 nM | Cc1cc(C(C)Nc2ccc(Cl)nc2-c2nnco2)c2c(c1)c(=O)n1c3c2cnn3C(CO)CC1 (stereo not shown) [Example 286, 10-(1-((6-chloro-2-(1,3,4-oxadiazol-2-yl)pyridin-3-yl)amino)ethyl)-3-(hydroxymethyl)-8-methyl-4,5-dihydro-3H,6H-2,2a,5a-triazaaceanthrylen-6-one] |
| < 1000 nM | Cc1cc(C(C)Nc2ccc(Cl)nc2-c2cnn(C)c2)c2c(c1)c(=O)n1c3c2cnn3C(CO)CC1 (stereo not shown) [Example 287, 10-(1-((6-chloro-2-(1-methyl-1H-pyrazol-4-yl)pyridin-3-yl)amino)ethyl)-3-(hydroxymethyl)-8-methyl-4,5-dihydro-3H,6H-2,2a,5a-triazaaceanthrylen-6-one] |
| < 1000 nM | Cc1cc(C(C)Nc2ccc(Cl)nc2-c2c[nH]nc2C)c2c(c1)c(=O)n1c3c2cnn3C(CO)CC1 (stereo not shown) [Example 288, 10-(1-((6-chloro-2-(3-methyl-1H-pyrazol-4-yl)pyridin-3-yl)amino)ethyl)-3-(hydroxymethyl)-8-methyl-4,5-dihydro-3H,6H-2,2a,5a-triazaaceanthrylen-6-one] |
| < 1000 nM | Cc1cc(C(C)Nc2ccc(Cl)nc2-c2ccc(=O)n(C)c2)c2c(c1)c(=O)n1c3c2cnn3C(CO)CC1 (stereo not shown) [Example 289, 10-(1-((6-chloro-1′-methyl-6′-oxo-1′,6′-dihydro-[2,3′-bipyridin]-3-yl)amino)ethyl)-3-(hydroxymethyl)-8-methyl-4,5-dihydro-3H,6H-2,2a,5a-triazaaceanthrylen-6-one] |
| < 1000 nM | Cc1cc(C(C)Nc2ccc(Cl)nc2-c2ncn(C)n2)c2c(c1)c(=O)n1c3c2cnn3C(CN(C)C)CC1 (stereo not shown) [Example 290, 10-(1-((6-Chloro-2-(1-methyl-1H-1,2,4-triazol-3-yl)pyridin-3-yl)amino)ethyl)-3-((dimethylamino)methyl)-8-methyl-4,5-dihydro-3H,6H-2,2a,5a-triazaaceanthrylen-6-one] |
